Several values for one entry are separate records, joined by “and”; a condition that tells them apart may be missing. Equal values may be shown once. Strand notation (5' to 3'): a small letter for the sugar, then the base; units joined by * are phosphorothioate-linked, units joined directly phosphodiester-linked; [ ] holds rarer units or linkages, { } end groups; capitals alone tell only the bases. {Fluor} = fluorescein moiety via fluorescein-labeled amidite; d = 2'-deoxy (DNA) A value given as a limit tells only on which side of the number the result lay.

The values below come from patent US20070015723A1, “Antiviral oligonucleotides having a conserved G4 core sequence” (priority 1992, published 2007).

One data set has as its system HSV-1 (KOS). The experiment in a line: HSV-1 infection ELISA assay. The class given is cell-based. The conditions noted are these: 50% inhibition of HSV replication relative to control infected cells; Table 1.
As for “ISIS 4671: GGG T GGG T ATA GAA G, P = S, SEQ ID NO 49 (GGGTGGGTATAGAAG; all phosphorothioate, sugars by position not given here)”, the EC50 was found to be 0.4 µM.

In the case of “ISIS 4895: CGC CGA TGC GGG GCG, P = S, SEQ ID NO 19 (CGCCGATGCGGGGCG; all phosphorothioate, sugars by position and methylation of C not given here)”, the EC50 came to 0.55 µM.

With “ISIS 4693: G T ATA G AAG GGC TCC, P = S, SEQ ID NO 52 (GTATAGAAGGGCTCC; all phosphorothioate, sugars by position and methylation of C not given here)”, the EC50 was above 3 µM.

As to “ISIS 4874: AGG CAT GAC CGG GGC, P = S, SEQ ID NO 3 (AGGCATGACCGGGGC; all phosphorothioate, sugars by position and methylation of C not given here)”, the EC50 was 1.1 µM and 0.83 µM.

As to “ISIS 5302: CAC GAA AGG CAT GAC, P = S, SEQ ID NO 7 (CACGAAAGGCATGAC; all phosphorothioate, sugars by position and methylation of C not given here)”, the EC50 is above 3 µM.

On to “ISIS 4692: T GGG T ATA G AAG GGC TCC, P = S, SEQ ID NO 51 (TGGGTATAGAAGGGCTCC; all phosphorothioate, sugars by position and methylation of C not given here)”, for which the EC50 worked out at 1.5 µM. That is a single-digit micromolar value.

Substance “ISIS 4889: AGG GGA ATC CGT CAT, P = S, SEQ ID NO 14 (AGGGGAATCCGTCAT; all phosphorothioate, sugars by position and methylation of C not given here)” came in with an EC50 of 2 µM.

With “ISIS 4890: GCC AGG GGA ATC CGT, P = S, SEQ ID NO 15 (GCCAGGGGAATCCGT; all phosphorothioate, sugars by position and methylation of C not given here)”, the concentration for a half-maximal effect (EC50) was 0.75 µM and 0.7 µM.

For “ISIS 4872: GGC GGG ACT ACG GGG, P = S, SEQ ID NO 11 (GGCGGGACTACGGGG; all phosphorothioate, sugars by position and methylation of C not given here)”, the EC50 was 1.9 µM and 1.7 µM.

“ISIS 5356: CGG GGT TGG GG, P = S, SEQ ID NO 25 (CGGGGTTGGGG; all phosphorothioate, sugars by position and methylation of C not given here)” displayed an EC50 of 0.7 µM.

As for “ISIS 5365: GA GAC CGG GGT TGG GG, P = S, SEQ ID NO 23 (GAGACCGGGGTTGGGG; all phosphorothioate, sugars by position and methylation of C not given here)”, the EC50 was 0.47 µM.

The substance “ISIS 4896: GC CGA TGC GGG G, P = S, SEQ ID NO 20 (GCCGATGCGGGG; all phosphorothioate, sugars by position and methylation of C not given here)” returned a concentration for a half-maximal effect (EC50) of 1.2 µM. This EC50 lies about 2.6-fold higher than the previous one.

“ISIS 4894: CAT CGC CGA TCG GGG, P = S, SEQ ID NO 18 (CATCGCCGATCGGGG; all phosphorothioate, sugars by position and methylation of C not given here)”: the half-maximal effective concentration (EC50) was above 3 µM.

The same data set, now with this note: HSV-1 (KOS strain); Table 9; some in duplicate.
Turning to “ISIS 4435: GGGGAGACCGAAACCGCAAA, phosphorothioate, SEQ ID NO 130 (GGGGAGACCGAAACCGCAAA; antisense; all phosphorothioate, sugars by position and methylation of C not given here)”, the EC50 is 0.22 µM.

“ISIS 4393: GGGGTTGGGGAATGAATCCC, phosphorothioate, SEQ ID NO 124 (GGGGTTGGGGAATGAATCCC; antisense; all phosphorothioate, sugars by position and methylation of C not given here)” registered an EC50 of 0.2 µM. The EC50 values of the last two substances are within 1.5-fold of each other.

“ISIS 4399: GTCCCGACTGGGGCGAGGAT, phosphorothioate, SEQ ID NO 133 (GTCCCGACTGGGGCGAGGAT; antisense; all phosphorothioate, sugars by position and methylation of C not given here)”: the EC50 turned out to be 0.25 µM.

The substance “ISIS 4111: CCTGGATGATGCTGGGGTAC, phosphorothioate, SEQ ID NO 131 (CCTGGATGATGCTGGGGTAC; antisense; all phosphorothioate, sugars by position and methylation of C not given here)” gave an EC50 of 0.6 µM.

As for “ISIS 4341: TGGAGACCGGGGTTGGGGAA, phosphorothioate, SEQ ID NO 127 (TGGAGACCGGGGTTGGGGAA; antisense; all phosphorothioate, sugars by position and methylation of C not given here)”, the EC50 was 0.2 µM. This EC50 is about 3-fold lower than that of the substance before.

Take “ISIS 4350: GACGGTCAAGGGGAGGGTTGG, phosphorothioate, SEQ ID NO 129 (GACGGTCAAGGGGAGGGTTGG; all phosphorothioate, sugars by position and methylation of C not given here)”: it took 0.25 µM to reach a half-maximal effect (EC50). This EC50 and that of the substance before are within 1.5-fold of each other.

With “ISIS 4348: GGGTTGGAGACCGGGGTTGG, phosphorothioate, SEQ ID NO 125 (GGGTTGGAGACCGGGGTTGG; all phosphorothioate, sugars by position and methylation of C not given here)”, a half-maximal effect (EC50) was put at 0.4 µM.

With “ISIS 4349: GGTTGGAGACCGGGGTTGGG, phosphorothioate, SEQ ID NO 126 (GGTTGGAGACCGGGGTTGGG; antisense; all phosphorothioate, sugars by position and methylation of C not given here)”, the EC50 is 0.25 µM.

In turn, “ISIS 4346: GAGGTGGGCTTCGGTGGTGA, phosphorothioate, SEQ ID NO 123 (GAGGTGGGCTTCGGTGGTGA; antisense; all phosphorothioate, sugars by position and methylation of C not given here)” yielded an EC50 of 0.5 µM. Compared with the last substance, the EC50 is about 2-fold higher.

Still in this data set, the particulars now being: Table 12, inosine-substituted.
“ISIS 4925: GTT GGA GAC CGG IGT TGG IG, Inosine #13, 19, SEQ ID NO 137 (GTT GGA GAC CGG IGTTGG IG; inosine at 13, 19, as printed in the source, key not given here)”: the EC50 was found to be 1.6 µM.

“ISIS 5310: GTT GGA GAC CGG GGT TGG GI, Inosine #20, SEQ ID NO 141 (GTT GGA GAC CGG GGTTGG GI; inosine at 20, as printed in the source, key not given here)” displayed an EC50 of 0.4 µM.

Regarding “ISIS 5295: GTT GGA GAC CGG GIT TGG GG, Inosine #14, SEQ ID NO 138 (GTT GGA GAC CGG GITTGG GG; inosine at 14, as printed in the source, key not given here)”, the EC50 was above 3 µM.

Turning to “ISIS 5309: GTT GGA GAC CGI GGT TGG GG, Inosine #12, SEQ ID NO 140 (GTT GGA GAC CGI GGTTGG GG; inosine at 12, as printed in the source, key not given here)”, the concentration giving a half-maximal response (EC50) was above 3 µM.

For the substance “ISIS 5296: GTT GGA GAC CGG GGT TGG IG, Inosine #19, SEQ ID NO 139 (GTT GGA GAC CGG GGTTGG IG; inosine at 19, as printed in the source, key not given here)”, the EC50 was 0.8 µM.

Still in this data set, the particulars now being: Table 13, fluorescein-conjugated.
“ISIS 5339: sequence of 1082 (SEQ ID NO 134) with a fluorescein moiety conjugated to the 5′ end (GCCGAGGTCCATGTCGTACGC; DNA, 5' {Fluor}, backbone not given here)”: the midpoint of the response, the EC50, lay at 0.65 µM.

A further data set deals with T1, human type II phospholipase A2 (Homo sapiens, UniProt P14555).
T1 sequence (P14555 21-144): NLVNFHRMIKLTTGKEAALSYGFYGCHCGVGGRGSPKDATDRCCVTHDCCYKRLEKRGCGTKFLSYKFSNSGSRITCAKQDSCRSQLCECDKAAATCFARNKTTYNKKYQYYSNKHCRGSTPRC
The experiment in a line: Human type II phospholipase A2 enzyme assay (3H-oleic acid labelled E. coli substrate). The class given is biochemical.
Details: not given
As to “ISIS 3631: AGGTCGAGGAGTGGTCTGAGC, phosphorothioate, SEQ ID NO 81 (dA*dG*dG*dT*dC*dG*dA*dG*dG*dA*dG*dT*dG*dG*dT*dC*dT*dG*dA*dG*dC)”, the “I.C.50 relative to ISIS 3196 (fold higher)” value was “approximately 10 fold”.

The data set is the same for the next values; noted with them: 1 μM; Table 4.
Take “ISIS 3631: AGGTCGAGGAGTGGTCTGAGC, phosphorothioate, SEQ ID NO 81 (dA*dG*dG*dT*dC*dG*dA*dG*dG*dA*dG*dT*dG*dG*dT*dC*dT*dG*dA*dG*dC)”: the “% Inhibition (1 μM)” value turned out to be 20.7%.

For “ISIS 3182: CAGAGGACTCCAGAGTTGTAT, phosphorothioate, SEQ ID NO 59 (dC*dA*dG*dA*dG*dG*dA*dC*dT*dC*dC*dA*dG*dA*dG*dT*dT*dG*dT*dA*dT)”, the “% Inhibition (1 μM)” value is recorded as 30.2%.

Regarding “ISIS 4133: AGTGCACGTTGAGTATGTGAG, phosphorothioate, SEQ ID NO 95 (dA*dG*dT*dG*dC*dA*dC*dG*dT*dT*dG*dA*dG*dT*dA*dT*dG*dT*dG*dA*dG)”, the “% Inhibition (1 μM)” value is reported as 37.3%.

For “ISIS 3663: GTCTGCTGGGTGGTCTGAACT, phosphorothioate, SEQ ID NO 85”, the “% Inhibition (1 μM)” value is 16.3%.

Consider “ISIS 3474: ATAGAAGGGCTCCTGCCTGGC, phosphorothioate, SEQ ID NO 70 (dA*dT*dA*dG*dA*dA*dG*dG*dG*dC*dT*dC*dC*dT*dG*dC*dC*dT*dG*dG*dC)”, for which the “% Inhibition (1 μM)” value was determined as 13.3%.

In the case of “ISIS 3478: TGGTTAAGCACGGAGTTGAGG, phosphorothioate, SEQ ID NO 74 (dT*dG*dG*dT*dT*dA*dA*dG*dC*dA*dC*dG*dG*dA*dG*dT*dT*dG*dA*dG*dG)”, the “% Inhibition (1 μM)” value came to 26.4%.

In the case of “ISIS 3632: CCAGGAGAGGTCGGTAAGGCG, phosphorothioate, SEQ ID NO 82 (dC*dC*dA*dG*dG*dA*dG*dA*dG*dG*dT*dC*dG*dG*dT*dA*dA*dG*dG*dC*dG)”, the “% Inhibition (1 μM)” value is 29.2%.

The data set is the same for the next values; noted with them: 1 μM; Table 5, two separate experiments.
Consider “ISIS 4962: GGG TGG GTA T, SEQ ID NO 108 (dG*dG*dG*dT*dG*dG*dG*dT*dA*dT)”, for which the “% Inhibition (1 μM)” value is listed as 36.3%.

As to “TGG GTA TAG AAG GGC: truncated version of ISIS 3196, SEQ ID NO 102 (dT*dG*dG*dG*dT*dA*dT*dA*dG*dA*dA*dG*dG*dG*dC)”, the “% Inhibition (1 μM)” value was determined as 33.5%.
